Data reported in US20250064789A1, “KETOAMIDE DERIVATIVES AND PHARMACEUTICAL USES THEREOF” (priority 2022, published 2025).

These compounds were tested against recombinant SARS-CoV-2 M^pro (Severe acute respiratory syndrome coronavirus 2 (2019-nCoV) (SARS-CoV-2), UniProt P0DTD1) (assay: Inhibition of SARS-CoV-2 M^pro enzyme activity (fluorescent substrate assay)). Details: inhibition of SARS-CoV-2 M^pro enzyme activity; values given in μM; read-out: IC50.
Type: biochemical
CN(C(=O)C1CCC(F)(F)CC1)C1(C(=O)N[C@H](Cc2ccccc2)C(=O)C(=O)NCc2ccccn2)CC1 [Compound 167] gave an IC50 of 3.81 ± 0.17 µM. Compound CN1CCC(C(=O)NC2(C(=O)N[C@H](Cc3ccccc3)C(=O)C(=O)NCc3ccccn3)CCC2)CC1=O (some centres unmarked) [Compound 189] has an IC50 greater than 2.5 µM.

Same assay, conditions: inhibition of SARS-CoV-2 M^pro enzyme activity; values in nM; read-out: IC50
Work on C[C@@H](NC(=O)C1CCCCC1)C(=O)N[C@H](Cc1ccccc1)C(=O)C(=O)NCc1ccccn1 [Compound 146] yielded an IC50 of 0.0123 ± 0.0002 µM. Work on C[C@@H](NC(=O)C1CCC(C(F)(F)F)CC1)C(=O)N[C@H](Cc1ccccc1)C(=O)C(=O)NCc1ccccn1 (some centres unmarked) [Compound 147] yielded an IC50 of 0.013 ± 0.0007 µM. Work on C[C@@H](NC(=O)COc1ccc(F)cc1)C(=O)N[C@H](Cc1ccccc1)C(=O)C(=O)NCc1ccccn1 [Compound 148] yielded an IC50 of 0.0117 ± 0.0024 µM. C[C@H](C(=O)N[C@H](Cc1ccccc1)C(=O)C(=O)NCc1ccccn1)N(C)C(=O)c1ccc(F)cc1 [Compound 149] showed an IC50 of 0.0364 ± 0.0074 µM. O=C(CNC(=O)[C@@H]1C[C@@H]2[C@H](C1)C2(F)F)N[C@H](Cc1ccccc1)C(=O)C(=O)NCc1ccccn1 [Compound 152] gave an IC50 of 0.0187 ± 0.0006 µM. In the case of O=C(CNC(=O)c1cnccn1)N[C@H](Cc1ccccc1)C(=O)C(=O)NCc1ccccn1 [Compound 154], the IC50 is reported as 0.193 ± 0.002 µM. Work on CN(CC(=O)N[C@H](Cc1ccccc1)C(=O)C(=O)NCc1ccccn1)C(=O)C1CCC(F)(F)CC1 [Compound 156] yielded an IC50 of 0.0334 ± 0.0009 µM. O=C(CCC1CCC(F)(F)CC1)NC1(C(=O)N[C@H](Cc2ccccc2)C(=O)C(=O)NCc2ccccn2)CC1 [Compound 157] gave an IC50 of 0.0125 ± 0.0005 µM. O=C(NCc1ccccn1)C(=O)[C@@H](Cc1ccccc1)NC(=O)C1(NC(=O)c2cnccn2)CC1 [Compound 158] was tested, and the IC50 was 0.252 ± 0.009 µM. With O=C(NCc1ccccn1)C(=O)[C@@H](Cc1ccccc1)NC(=O)C1(NC(=O)C2CCC(F)(F)CC2)CC1 [Compound 159] the IC50 was 0.0215 ± 0.0057 µM. O=C(CC1CCC(F)(F)CC1)NC1(C(=O)N[C@H](Cc2ccccc2)C(=O)C(=O)NCc2ccccn2)CC1 [Compound 160] showed an IC50 of 0.0135 ± 0.0035 µM. O=C(NCc1ccccn1)C(=O)[C@@H](Cc1ccccc1)NC(=O)C1(NC(=O)[C@@H]2C[C@@H]3[C@H](C2)C3(F)F)CC1 [Compound 161] showed an IC50 of 0.0153 ± 0.0016 µM. O=C(NCc1ccccn1)C(=O)[C@@H](Cc1ccccc1)NC(=O)C1(NC(=O)[C@H]2CC[C@@H](F)CC2)CC1 [Compound 162] showed an IC50 of 0.0175 ± 0.0008 µM. Work on O=C(NCc1ccccn1)C(=O)[C@@H](Cc1ccccc1)NC(=O)C1(NC(=O)c2cc(Br)cc(OC(F)(F)F)c2)CC1 [Compound 163] yielded an IC50 of 0.0208 ± 0.0007 µM. For O=C(Cc1cc(OC(F)(F)F)ccc1F)NC1(C(=O)N[C@H](Cc2ccccc2)C(=O)C(=O)NCc2ccccn2)CC1 [Compound 164], the IC50 was 0.0132 ± 0.0005 µM. With O=C(NCc1ccccn1)C(=O)[C@@H](Cc1ccccc1)NC(=O)C1(NC(=O)c2cc(OC(F)(F)F)ccc2F)CC1 [Compound 165] the IC50 was 0.0203 ± 0.0002 µM. O=C(NCc1ccccn1)C(=O)[C@@H](Cc1ccccc1)NC(=O)C1(NC(=O)C2CC23CCC(F)(F)CC3)CC1 (some centres unmarked) [Compound 166] gave an IC50 of 0.0233 ± 0.0008 µM. With O=C(NCc1ccccn1)C(=O)[C@@H](Cc1ccccc1)NC(=O)C1(NC(=O)C2(F)CCCCC2)CC1 [Compound 168] the IC50 was 0.0107 ± 0.0004 µM. O=C(NCc1ccccn1)C(=O)[C@@H](Cc1ccccc1)NC(=O)C1(NC(=O)C2CCC(F)(F)CC2)CC1 [Compound 169] was tested, and the IC50 was 0.0226 ± 0.0037 µM. O=C(NCc1ccccn1)C(=O)[C@@H](Cc1ccccc1)NC(=O)C1(NC(=O)c2ccc(F)cc2)CC1 [Compound 170] gave an IC50 of 0.0194 ± 0.0007 µM. CC(C)(NC(=O)CCC1CCC(F)(F)CC1)C(=O)N[C@H](Cc1ccccc1)C(=O)C(=O)NCc1ccccn1 [Compound 171] was tested, and the IC50 was 0.0089 ± 0.0004 µM. Work on CC(C)(NC(=O)CC1CCC(F)(F)CC1)C(=O)N[C@H](Cc1ccccc1)C(=O)C(=O)NCc1ccccn1 [Compound 173] yielded an IC50 of 0.0103 ± 0.0001 µM. CC(C)(NC(=O)[C@H]1CC[C@@H](F)CC1)C(=O)N[C@H](Cc1ccccc1)C(=O)C(=O)NCc1ccccn1 [Compound 175] was tested, and the IC50 was 0.0473 ± 0.0028 µM. With CC(C)(NC(=O)C1CC12CCC(F)(F)CC2)C(=O)N[C@H](Cc1ccccc1)C(=O)C(=O)NCc1ccccn1 (some centres unmarked) [Compound 176] the IC50 was 0.0159 µM. CC(C)(NC(=O)[C@@H](NC(=O)c1cnccn1)C1CCCCC1)C(=O)N[C@H](Cc1ccccc1)C(=O)C(=O)NCc1ccccn1 [Compound 178] was tested, and the IC50 was 0.0175 ± 0.0005 µM. For CC(C)(NC(=O)C(=O)c1ccccc1)C(=O)N[C@H](Cc1ccccc1)C(=O)C(=O)NCc1ccccn1 [Compound 179], the IC50 was 0.0145 ± 0.0019 µM. For CC(C)(NC(=O)[C@H](NC(=O)c1cnccn1)C1CCCCC1)C(=O)N[C@H](Cc1ccccc1)C(=O)C(=O)NCc1ccccn1 [Compound 180], the IC50 was 0.0318 ± 0.0009 µM. CC(C)(NC(=O)c1cc(Cl)cc(OC(F)(F)F)c1)C(=O)N[C@H](Cc1ccccc1)C(=O)C(=O)NCc1ccccn1 [Compound 181] was tested, and the IC50 was 0.0166 ± 0.0003 µM. CC(C)(NC(=O)c1ccc2c(c1)OC(F)(F)O2)C(=O)N[C@H](Cc1ccccc1)C(=O)C(=O)NCc1ccccn1 [Compound 182] gave an IC50 of 0.0224 ± 0.0005 µM. With COc1ccc(OC(F)(F)F)cc1C(=O)NC(C)(C)C(=O)N[C@H](Cc1ccccc1)C(=O)C(=O)NCc1ccccn1 [Compound 183] the IC50 was 0.0219 ± 0.0003 µM. For CC(C)(NC(=O)c1ccc(F)c(OC(F)(F)F)c1)C(=O)N[C@H](Cc1ccccc1)C(=O)C(=O)NCc1ccccn1 [Compound 184], the IC50 was 0.0133 ± 0.0002 µM. CC(C)(NC(=O)C1(F)CCCCC1)C(=O)N[C@H](Cc1ccccc1)C(=O)C(=O)NCc1ccccn1 [Compound 185] gave an IC50 of 0.0097 ± 0.0007 µM. CC(C)(NC(=O)c1ccc(F)cc1)C(=O)N[C@H](Cc1ccccc1)C(=O)C(=O)NCc1ccccn1 [Compound 186] was tested, and the IC50 was 0.0186 ± 0.0011 µM. Work on O=C(NCc1ccccn1)C(=O)[C@@H](Cc1ccccc1)NC(=O)C1(NC(=O)C2CCC(F)(F)CC2)CCC1 [Compound 187] yielded an IC50 of 0.0107 ± 0.0005 µM. In the case of O=C(NCc1ccccn1)C(=O)[C@@H](Cc1ccccc1)NC(=O)C1(NC(=O)[C@H]2CC[C@@H](F)CC2)CCC1 [Compound 188], the IC50 is reported as 0.079 ± 0.0088 µM. Compound O=C(NCc1ccccn1)C(=O)[C@@H](Cc1ccccc1)NC(=O)C1(NC(=O)C2CC(=O)N(c3ccccc3)C2)CCC1 (some centres unmarked) [Compound 190] has an IC50 of 0.0296 µM. Compound O=C(NCc1ccccn1)C(=O)[C@@H](Cc1ccccc1)NC(=O)C1(NC(=O)C2CCOCC2)CCC1 [Compound 191] has an IC50 of 0.073 ± 0.0045 µM. Work on CC1(C)C(C(=O)NC2(C(=O)N[C@H](Cc3ccccc3)C(=O)C(=O)NCc3ccccn3)CCC2)C1(C)C [Compound 192] yielded an IC50 of 0.0254 ± 0.0009 µM. Compound O=C(NCc1ccccn1)C(=O)[C@@H](Cc1ccccc1)NC(=O)C1(NC(=O)C2CCCC(F)(F)C2)CCC1 (some centres unmarked) [Compound 193] has an IC50 of 0.0167 ± 0.0004 µM. CN(C(=O)C1CCC(F)(F)CC1)C1(C(=O)N[C@H](Cc2ccccc2)C(=O)C(=O)NCc2ccccn2)CCC1 [Compound 194] showed an IC50 of 0.387 ± 0.03 µM. O=C(NCc1ccccn1)C(=O)[C@@H](Cc1ccccc1)NC(=O)C1(NC(=O)C2CCCCCC2)CCC1 [Compound 195] gave an IC50 of 0.0308 ± 0.0001 µM. For O=C(CC12CC3CC(CC(C3)C1)C2)NC1(C(=O)N[C@H](Cc2ccccc2)C(=O)C(=O)NCc2ccccn2)CCC1 [Compound 196], the IC50 was 0.0145 ± 0.0001 µM. With O=C(CC1CCCC1)NC1(C(=O)N[C@H](Cc2ccccc2)C(=O)C(=O)NCc2ccccn2)CCC1 [Compound 197] the IC50 was 0.0138 ± 0.0008 µM. With O=C(NCc1ccccn1)C(=O)[C@@H](Cc1ccccc1)NC(=O)C1(NC(=O)c2cc(C(F)(F)F)[nH]n2)CCC1 [Compound 198] the IC50 was 0.0181 ± 0.0027 µM. O=C(NCc1ccccn1)C(=O)[C@@H](Cc1ccccc1)NC(=O)C1(NC(=O)C23CC4CC(CC(O)(C4)C2)C3)CCC1 [Compound 199] was tested, and the IC50 was 0.0527 ± 0.001 µM.
